Article PMC6325200, “Effects of Microplate Type and Broth Additives on Microdilution MIC Susceptibility Assays” (Antimicrobial Agents and Chemotherapy, 2018)

What was measured:
E. coli ATCC 25922 = assay: microbe, parasite or virus in culture; conditions: n = 2
Method in brief: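 Broth microdilution with 2-fold serial compound dilutions in MH broth, using cultures diluted 40-fold and grown at 37°C for 2 to 3 h, with or without Tween. Variants included 2% beractant added to mid-log cultures, or 50% human serum in MHB.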

A. baumannii ATCC 19606 = assay: microbe, parasite or virus in culture; conditions: Acinetobacter baumannii, n = 2
Method in brief: (§1)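 Compounds and standard antibiotics were serially diluted 2-fold across 96-well plates. Cultures were diluted 40-fold in fresh MH broth, with and without Tween, and incubated at 37°C for 2 to 3 h. Each plate carried a bacteria-only row and a medium-only control.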

K. pneumoniae ATCC 13883 = assay: microbe, parasite or virus in culture; conditions: Klebsiella pneumoniae, n = 2
Method in brief: as §1

P. aeruginosa ATCC 10145 = assay: microbe, parasite or virus in culture; conditions: Pseudomonas aeruginosa, n = 2
Method in brief: as §1

E. coli = conditions: literature value; cited from earlier work

COc1cc(Cc2cnc(N)nc2N)cc(OC)c1OC [Trimethoprim, trimethoprim]
1 to 8 µg/mL: MIC (E. coli ATCC 25922; Escherichia coli, ATCC25922, 24 h, Corning PS, MH + 2% LHB, 50% HS) | MIC (K. pneumoniae ATCC 13883; ATCC13883, Corning PS, MHB -T80)
1 µg/mL: MIC (E. coli ATCC 25922; Escherichia coli, ATCC25922, 24 h, Corning NBS, MH + 2% LHB, 2% LS) | MIC (E. coli ATCC 25922; Escherichia coli, ATCC25922, 24 h, Corning NBS, MH + 2% LHB, no additive) | MIC (E. coli ATCC 25922; Escherichia coli, ATCC25922, 24 h, Corning TC, MH + 2% LHB, no additive) | MIC (E. coli ATCC 25922; Escherichia coli, ATCC25922, 24 h, Trek PS, MH + 2% LHB, 50% HS) | MIC (E. coli ATCC 25922; Escherichia coli, ATCC25922, 24 h, Trek PS, MH + 2% LHB, no additive) | MIC (E. coli ATCC 25922; Escherichia coli, ATCC25922, Corning NBS plate, MHB +0.002% T80, no further additive) | MIC (E. coli ATCC 25922; Escherichia coli, ATCC25922, Corning PS, MH, 2% LS) | MIC (E. coli ATCC 25922; Escherichia coli, ATCC25922, Trek PS, MH, 50% HS)
0.06–0.25 ([72]) µg/ml: MIC (literature) (E. coli)
64 µg/mL: MIC (A. baumannii ATCC 19606; ATCC19606, Corning NBS, MHB +T80)
4 to 8 µg/mL: MIC (K. pneumoniae ATCC 13883; ATCC13883, Corning NBS, MHB -T80)
1 to 4 µg/mL: MIC (E. coli ATCC 25922; Escherichia coli, ATCC25922, Trek PS, MH, 2% LS)
2 µg/mL: MIC (E. coli ATCC 25922; Escherichia coli, ATCC25922, 24 h, Corning NBS, MH + T80, 2% LS) | MIC (E. coli ATCC 25922; Escherichia coli, ATCC25922, 24 h, Corning NBS, MH + T80, 50% HS) | MIC (E. coli ATCC 25922; Escherichia coli, ATCC25922, 24 h, Trek PS, MH + T80, 2% LS) | MIC (E. coli ATCC 25922; Escherichia coli, ATCC25922, Trek PS plate, MHB +0.002% T80, no further additive)
0.25 µg/mL: MIC (E. coli ATCC 25922; Escherichia coli, ATCC25922, Nunc PS plate, MHB −T80)
2 to 4 µg/mL: MIC (E. coli ATCC 25922; Escherichia coli, ATCC25922, 24 h, Trek PS, MH + T80, 50% HS) | MIC (K. pneumoniae ATCC 13883; ATCC13883, Corning PS, MHB +T80)
32 to 64 µg/mL: MIC (A. baumannii ATCC 19606; ATCC19606, Corning TC, MHB +T80)
1 to 2 µg/mL: MIC (E. coli ATCC 25922; Corning PS plate, MHB +0.002% T80, no further additive) | MIC (E. coli ATCC 25922; Escherichia coli, ATCC25922, 24 h, Corning NBS, MH + 2% LHB, 50% HS) | MIC (E. coli ATCC 25922; Escherichia coli, ATCC25922, 24 h, Corning PS, MH + 2% LHB, 2% LS) | MIC (E. coli ATCC 25922; Escherichia coli, ATCC25922, 24 h, Corning PS, MH + 2% LHB, no additive) | MIC (E. coli ATCC 25922; Escherichia coli, ATCC25922, 24 h, Corning PS, MH + T80, 2% LS) | MIC (E. coli ATCC 25922; Escherichia coli, ATCC25922, 24 h, Corning PS, MH + T80, 50% HS) | MIC (E. coli ATCC 25922; Escherichia coli, ATCC25922, 24 h, Corning TC, MH + 2% LHB, 2% LS) | MIC (E. coli ATCC 25922; Escherichia coli, ATCC25922, 24 h, Corning TC, MH + 2% LHB, 50% HS) | MIC (E. coli ATCC 25922; Escherichia coli, ATCC25922, 24 h, Corning TC, MH + T80, 2% LS) | MIC (E. coli ATCC 25922; Escherichia coli, ATCC25922, 24 h, Corning TC, MH + T80, 50% HS) | MIC (E. coli ATCC 25922; Escherichia coli, ATCC25922, Corning NBS, MH, 2% LS) | MIC (E. coli ATCC 25922; Escherichia coli, ATCC25922, Corning NBS, MH, 50% HS) | MIC (E. coli ATCC 25922; Escherichia coli, ATCC25922, Corning PS plate, MHB +0.002% T80, no further additive) | MIC (E. coli ATCC 25922; Escherichia coli, ATCC25922, Corning PS, MH, 50% HS) | MIC (E. coli ATCC 25922; Escherichia coli, ATCC25922, Corning TC, MH, 2% LS) | MIC (K. pneumoniae ATCC 13883; ATCC13883, Corning NBS, MHB +T80)
0.5 to 1 µg/mL: MIC (E. coli ATCC 25922; Corning TC plate, MHB +0.002% T80, no further additive) | MIC (E. coli ATCC 25922; Escherichia coli, ATCC25922, 24 h, Trek PS, MH + 2% LHB, 2% LS) | MIC (E. coli ATCC 25922; Escherichia coli, ATCC25922, Corning TC plate, MHB +0.002% T80, no further additive) | MIC (E. coli ATCC 25922; Escherichia coli, ATCC25922, Corning TC, MH, 50% HS) | MIC (E. coli ATCC 25922; Escherichia coli, ATCC25922, Trek PS plate, MHB −T80, no additive) | MIC (E. coli ATCC 25922; Trek PS plate, MHB −T80, no additive)
4 to 16 µg/mL: MIC (K. pneumoniae ATCC 13883; ATCC13883, Corning TC, MHB +T80) | MIC (K. pneumoniae ATCC 13883; ATCC13883, Corning TC, MHB -T80)
> 64 µg/mL: MIC (A. baumannii ATCC 19606; ATCC19606, Corning PS, MHB +T80) | MIC (A. baumannii ATCC 19606; ATCC19606, Corning PS, MHB -T80) | MIC (P. aeruginosa ATCC 10145; ATCC10145, Corning NBS, MHB +T80) | MIC (P. aeruginosa ATCC 10145; ATCC10145, Corning NBS, MHB -T80) | MIC (P. aeruginosa ATCC 10145; ATCC10145, Corning PS, MHB +T80) | MIC (P. aeruginosa ATCC 10145; ATCC10145, Corning PS, MHB -T80) | MIC (P. aeruginosa ATCC 10145; ATCC10145, Corning TC, MHB +T80) | MIC (P. aeruginosa ATCC 10145; ATCC10145, Corning TC, MHB -T80)
16 to 32 µg/mL: MIC (A. baumannii ATCC 19606; ATCC19606, Corning NBS, MHB -T80) | MIC (A. baumannii ATCC 19606; ATCC19606, Corning TC, MHB -T80)
0.25 to 0.5 µg/mL: MIC (E. coli ATCC 25922; Corning NBS plate, MHB −T80, no additive) | MIC (E. coli ATCC 25922; Corning PS plate, MHB −T80, no additive) | MIC (E. coli ATCC 25922; Corning TC plate, MHB −T80, no additive) | MIC (E. coli ATCC 25922; Escherichia coli, ATCC25922, Corning NBS plate, MHB −T80, no additive) | MIC (E. coli ATCC 25922; Escherichia coli, ATCC25922, Corning PS plate, MHB −T80, no additive) | MIC (E. coli ATCC 25922; Escherichia coli, ATCC25922, Corning TC plate, MHB −T80, no additive) | MIC (E. coli ATCC 25922; Escherichia coli, ATCC25922, Nunc PS plate, MHB +0.002% T80) | MIC (E. coli ATCC 25922; Escherichia coli, ATCC25922, Nunc U TC plate, MHB +0.002% T80) | MIC (E. coli ATCC 25922; Escherichia coli, ATCC25922, Nunc U TC plate, MHB −T80) | MIC (E. coli ATCC 25922; Escherichia coli, ATCC25922, Nunc flat TC plate, MHB +0.002% T80) | MIC (E. coli ATCC 25922; Escherichia coli, ATCC25922, Nunc flat TC plate, MHB −T80)
